Source: patent US20180244629A1, “Compounds And Compositions For The Treatment Of Cancer” (The Broad Institute, Inc., priority 2013, published 2018)
Read-outs that look alike come from different tables or passages of the source.

Legend:
HeLa cells = assay: HeLa Cytotoxicity Assay (Cell Titer Glo viability); format: cell-based
Protocol: HeLa Cytotoxicity Assay Protocol: Day 0: HeLa cells (ATCC, HeLa CCL-2) are grown to 95% confluence in DMEM, 10% FBS/Pen/Strep/L-Glutamine. Day 1: Plate cells (1000 per well) in 40 μl culturing media using Corning 384-well plates (3570), incubate in standard TC conditions (5% CO2, 95% humidity, 37 degrees C.) for 24 hours. Day 2: Dilute each concentration of a half-log serial dilution of compound (1 mM-100 nM) 1:200 in culturing media and add 10 μl (50 μl total volume) of that dilution to designated wells (8 replicates per concentration). The final dilution will be 1000×(1 μM-100 pM). Day 4: Remove plate from incubator to cool for 20 minutes to room temperature. Add 40 μl of a 25% Promega Cell Titer Glo solution (diluted 1:3 with room temperature PBS) with Thermo combi or multichannel and incubate for 10 minutes. Read on Perkin-Elmer EnVision with US LUM settings for 0.1 second per well.
(§1) Compounds as shown were tested against various cells lines in vitro according to the methods described herein. Cells are plated in 384-well format in a total volume of 40 μl. Indicated compound concentrations were added 24 hrs after plating the cells. After 48 hrs cell viability was determined using Cell Titer Glo® Luminescent Cell Viability Assay.
(§2) Known PDE3 inhibitors as shown below were tested against various cells lines in vitro according to the methods described herein. Cells are plated in 384-well format in a total volume of 40 μl. Indicated compound concentrations were added 24 hrs after plating the cells. After 48 hrs cell viability was determined using Cell Titer Glo® Luminescent Cell Viability Assay.

A549 cells = assay: A549 Cytotoxicity Assay (Cell Titer Glo viability); format: cell-based
Protocol: A549 Cytotoxicity Assay Protocol. Day 0: A549 cells (ATCC, A549 CCL-185) are grown to 95% confluence in RPMI, 10% FBS/Pen/Strep/L-Glutamine. Day 1: Plate cells (1000 per well) in 40 μl culturing media using Corning 384-well plates (3570), incubate in standard TC conditions (5% CO2, 95% humidity, 37° C.) for 24 h. Day 2: Dilute each concentration of a half-log serial dilution of compound (1 mM-100 nM) 1:200 in culturing media and add […] (50 μl total volume) of that dilution to designated wells (8 replicates per concentration). The final dilution will be 1000×([…]). Day 4: Remove plate from incubator to cool for 20 minutes to room temperature. Add 40 μl of a 25% Promega Cell Titer Glo solution (diluted 1:3 with room temperature PBS) with Thermo combi or multichannel and incubate for 10 min. Read on Perkin-Elmer EnVision with US LUM settings for 0.1 second per well.
A549 Assay Protocol. Day 0: A549 cells (ATCC) are grown in a Triple flask (NUNC) to ˜95% confluence (TrypLE Phenol Red free) and resuspended for dispensing at 25,000 cells/mL of DMEM, 10% FBS/Pen/Strep/L-Glutamine (using the TAP Compact SelecT automated cell culture system). Day 1: Plate cells at 1000 per well in 40 uL media (DMEM/10% FBS/Pen/Strep/L-Glutamine) using Corning 8867BC 384 well plates; incubate in standard TC conditions (5% CO2; 95% humidity, 37° C.) for 24 hours (Compact SelecT). Day 2: Add 100 nL compound per well at dose into 40 uL assay volume using a pin tool (CyBi Well). Pin 100 nL cytotoxic compounds, mitoxantrone (CID 4212) to positive control wells to a final concentration of 10 μM (100 nL 4 mM DMSO stock). Incubate for […] at 37° C. in Liconic incubator, 95% humidity 5% CO2. Day 4: Remove plate from incubator, cool for 15 minutes to room temperature; add 20 μL 50% Promega CellTiterGlo (diluted 1:1 with PBS, pH 7.4) with Thermo Combi. Incubate at room temperature for 5 minutes. Read plates on Perkin-Elmer EnVision with standard luminescence settings for 0.1 sec per well.
as §1, §2

[1] = Homo sapiens, HeLa, Mean ± SD (n = 3), read-out: Potency (EC50 nM) HeLa
[2] = Homo sapiens, A549, Mean ± SD (n = 3), read-out: Potency (EC50 nM) A549
[3] = Homo sapiens, HeLa, n = 2, read-out: Potency (EC50) HeLa
[4] = Homo sapiens, A549, n = 2, read-out: Potency (EC50) A549
[5] = Mean ± SD (n = 3), read-out: Potency (EC50 nM) HeLa
[6] = Homo sapiens, HeLa, 48 h, Cell Titer Glo, read-out: EC50 HeLa
[7] = Homo sapiens, A549, 48 hrs, Cell Titer Glo, read-out: EC50 A549
[8] = 48 hrs, Cell Titer Glo, read-out: EC50 HeLa

| Compound | EC50 (HeLa cells; [1]) [nM] | EC50 (A549 cells; [2]) [nM] | further results |
| --- | --- | --- | --- |
| CC(=O)Nc1ccc(C2=NNC(=O)C[C@H]2C)cc1Cl | 30 | > 10000 | – |
| CC1CC(=O)NN=C1c1cccs1 (centres unmarked) | – | – | EC50 (HeLa cells; [3]): > 10000 nM; EC50 (A549 cells; [4]): > 10000 nM |
| C[C@@H]1CC(=O)NN=C1c1ccc(N2CCCC2=O)cc1 [drawing 182] | – | > 10000 | EC50 (HeLa cells; [5]): 140 ± 50 nM |
| CC1CC(=O)NN=C1c1ccc(C2=CCCCC2)cc1 (centres unmarked) | 2.2 ± 0.4 | > 10000 | – |
| C/C=C/c1ccc(C2=NNC(=O)C[C@H]2C)cc1 | 8.8 ± 1.1 | > 10000 | – |
| C[C@@H]1CC(=O)NN=C1c1ccc(N2CCCCS2(=O)=O)cc1 | 330 ± 6 | > 10000 | – |
| CCNc1ccc(C2=NNC(=O)C[C@H]2C)cc1 | 71 ± 7 | > 10000 | – |
| C[C@@H]1CC(=O)NN=C1c1ccc(I)cc1 | 7.1 ± 0.8 | > 10000 | – |
| C[C@@H]1CC(=O)NN=C1c1ccc(N)c(Br)c1 | – | – | EC50 (HeLa cells; [6]): > 10000 nM; EC50 (A549 cells; [7]): > 10000 nM |
| CCN(CC)c1ccc(-c2nc(C(C)C)no2)cc1[N+](=O)[O-] | – | – | EC50 (HeLa cells; [3]): > 10000 nM; EC50 (A549 cells; [4]): > 10000 nM |
| C[C@H]1CC(=O)NN=C1c1ccc(F)c(F)c1 | > 1000 | > 10000 | – |
| CC(=O)Nc1ccc(C2=NNC(=O)CC2C)cc1 (centres unmarked) [drawing 148] | – | – | EC50 (HeLa cells; [8]): > 1000 nM; EC50 (A549 cells; [7]): > 10000 nM |
| CCN(CC)c1ccc(C2=NNC(=O)C[C@H]2C)cc1[N+](=O)[O-] [drawing 155] | 3.8 ± 1.1 | > 10000 | – |
| C[C@@H]1CC(=O)NN=C1c1ccc(N2CCCOC2=O)cc1 | > 1000 | > 10000 | – |
| CCNc1ccc(C2=NNC(=O)C[C@H]2C)cc1[N+](=O)[O-] [drawing 156] | 1.1 ± 0.5 | > 10000 | – |
| CC(=O)Nc1ccc(C2=NNC(=O)C[C@H]2C)cc1[N+](=O)[O-] [drawing 143] | – | – | EC50 (HeLa cells; [6]): 0.00608 nM; EC50 (A549 cells; [7]): > 10000 nM |
| C[C@@H]1CC(=O)NN=C1c1ccc(C2CCCCC2)cc1 [drawing 196] | 7.7 ± 1.3 | > 10000 | – |
| CC(=O)Nc1ccc(-c2n[nH]c(=O)cc2C)cc1 | > 1000 | > 10000 | – |
| C[C@H]1CC(=O)NN=C1c1ccc(N2CCOCC2)c(F)c1 | > 1000 | > 10000 | – |
| CC1(C)C(=O)NN=C1c1ccc(N)cc1 | > 1000 | > 10000 | – |
| CCN(CC)c1ccc(C2=NNC(=O)C2(C)C)cc1 | > 1000 | > 10000 | – |
| CCN(CC)c1ccc(C2=NNC(=O)CC2C)cc1NC(C)=O (centres unmarked) | > 1000 | > 10000 | – |
| CCN1N=C(c2ccc(N(CC)CC)cc2)[C@H](C)CC1=O [drawing 160] | > 1000 | > 10000 | – |
| C[C@@H]1CC(=O)NN=C1c1ccc(-n2cnnc2)cc1 | > 1000 | > 10000 | – |
| C[C@@H]1CC(=O)NN=C1c1ccc(N2CCCCC2)cc1 | 3.9 ± 0.6 | > 10000 | – |
| CCN(CC)c1ccc(C2=NNC(=O)C[C@H]2C)cc1 | 3.8 ± 0.8 | > 10000 | – |

| Compound | EC50 (HeLa cells; [1]) [nM] | EC50 (A549 cells; [2]) [nM] | further results |
| --- | --- | --- | --- |
| C[C@@H]1CC(=O)NN=C1c1ccccc1 | 430 ± 50 | > 10000 | – |
| CC1CC(=O)NN=C1c1ccc(F)cc1 (centres unmarked) | 410 ± 270 | > 10000 | – |
| CC1CC(=O)NN=C1c1ccc(N2CCOCC2)c(F)c1 (centres unmarked) | 2.8 ± 0.7 | > 10000 | – |
| C[C@@H]1CC(=O)NN=C1c1ccc(F)c(F)c1 [drawing 190] | 22 ± 5 | > 10000 | – |
| CC1CC(=O)NN=C1c1ccc(F)c(F)c1 (centres unmarked) | 64 ± 3 | > 10000 | – |
| CC1(C)C(=O)NN=C1c1ccc(N2CCOCC2)cc1 | > 1000 | > 10000 | – |
| CC(=O)Nc1ccc(C2=NNC(=O)C[C@H]2C)cc1[N+](=O)[O-] [drawing 176] | 4.9 ± 1.1 | > 10000 | – |
| O=C1CC2CCc3cc(N4CCOCC4)ccc3C2=NN1 (centres unmarked) | > 1000 | > 10000 | – |
| CC1CC(=O)N(c2ccccc2)N=C1c1ccc(Cl)cc1 (centres unmarked) | – | – | EC50 (HeLa cells; [3]): > 10000 nM; EC50 (A549 cells; [4]): > 10000 nM |
| CC(=O)Nc1ccc(C2=NNC(=O)C[C@H]2C)cc1Br [drawing 175] | 21 ± 1 | > 10000 | – |
| CC(=O)Nc1ccc(C2=NNC(=O)C[C@H]2C)cc1F | > 1000 | > 10000 | – |
| CC1CC(=O)NN=C1c1ccc(N2CCOCC2)cc1 (centres unmarked) | 36 ± 9 | > 10000 | – |
| Cc1cc(=O)[nH]nc1-c1ccc(N)cc1 [drawing 149] | – | – | EC50 (HeLa cells; [6]): > 1000 nM; EC50 (A549 cells; [7]): > 10000 nM |
| C[C@@H]1CC(=O)NN=C1c1ccc(N2CCCC2=O)cc1 [drawing 183] | – | – | EC50 (HeLa cells; [5]): > 1000 nM; EC50 (A549 cells; Mean ± SD (n = 3), read-out: Potency (EC50 nM) A549): > 10000 nM |
| C[C@@H]1CC(=O)NN=C1c1ccc(N2CCN(C)CC2)cc1 | 310 ± 120 | > 10000 | – |
| CC1CC(=O)NN=C1c1ccc(N2CCN(C(=O)Cc3ccc(Cl)cc3Cl)CC2)cc1 (centres unmarked) | – | – | EC50 (HeLa cells; [3]): > 10000 nM; EC50 (A549 cells; [4]): > 10000 nM |
| C[C@@H]1CC(=O)NN=C1c1ccc(N2CCOCC2)cc1 [drawing 164] | 13 ± 2 | > 10000 | – |
| CC(=O)Nc1ccc(C2=NNC(=O)C[C@H]2C)cc1N | > 1000 | > 10000 | – |
| CCN(CC)c1ccc(-c2n[nH]c(=O)cc2C)cc1 [drawing 150] | – | – | EC50 (HeLa cells; [6]): > 1000 nM; EC50 (A549 cells; [7]): > 10000 nM |
| CCCc1ccc(C2=NNC(=O)C[C@H]2C)cc1 | 16 ± 1 | > 10000 | – |
| CC(=O)Nc1ccc(C2=NNC(=O)C[C@H]2C)cc1 [drawing 144] | – | – | EC50 (HeLa cells; [6]): > 10000 nM; EC50 (A549 cells; [7]): > 10000 nM |
| CC(=O)Nc1ccc(C2=NNC(=O)CC2C)cc1 (centres unmarked) [drawing 139] | – | – | EC50 (HeLa cells; [8]): > 10000 nM; EC50 (A549 cells; 48 hrs, Cell Titer Glo, read-out: EC50 A549): > 10000 nM |
| CC(=O)Nc1ccc(C2=NNC(=O)C[C@H]2C)cc1C(C)=O | 130 ± 10 | > 10000 | – |
| Cc1nc2ccc(C3=NNC(=O)C[C@H]3C)cc2[nH]1 | > 1000 | > 10000 | – |
| CCN(CC)c1ccc(C2=NNC(=O)CC2C)cc1[N+](=O)[O-] (centres unmarked) [drawing 154] | – | > 10000 | – |
